Laboratory results reported in patent publication US20040146872A1, “Fat regulated genes, uses thereof and compounds for modulating same” (priority 2003, published 2004).

What was measured:
Format in all cases: in vivo
G6PD = assay: Northern blot quantification of G6PD mRNA in liver of rats fed PUFA-supplemented fat free diet; conditions: rat liver RNA; female Wistar rats, fat free diet 2 weeks, then fatty acid 5% (w/w) in diet 2 weeks; ± standard deviation of three rats; not normalized for 18S; fat free = 100
Description: (§1) The present inventors have identified genes that were modulated or regulated by dietary fat using a differential display technique (Liang P. and Pardee A. B., 1992, Science, 257: 967-971). Groups of female Wistar rats were fed fat free diet for two weeks. After two weeks all groups but one (controls) were supplemented with highly purified PUFAs for an additional two weeks. The rats were sacrificed and tissues were removed to obtain RNA for differential display and Northern blotting. Differential display identified genes regulated by dietary fat by comparing mRNA populations from rat liver. For the study, the rats were divided into six groups and fed fat free diet for 14 days. Each group was fed fat free diet for an additional two weeks with the following supplements: group 1-no supplement (fat free control); group 2-linoleic acid (LA, 18:2n-6); group 3-gamma-linolenic acid (GLA, 18:3n-6); group 4-alpha-linolenic acid (ALA, 18:3n-3); group 5-eicosapentaenoic acid (EPA, 20:5n-3) and group 6-docosahexaenoic acid (DHA, 22:6n-3). Fatty acids were administered in the diet at a fatty acid-specific concentration of 5% (w/w), as described in Example 1. The rats were fed ad libitum. […] The rats were randomly divided into 6 groups and fed fat free diet (Teklad #94013). After 2 weeks, groups 2-6 were fed diets supplemented with highly purified polyunsaturated fatty acids for an additional 2 weeks. The concentration of the specific fatty acid used for each group was 5% (w/w) of the total diet preparation. The experimental design is provided below. Diets were prepared by mixing the oils into the fat free diet. The mixed diet was stored at -20° C. under a nitrogen atmosphere to prevent fatty acid oxidation. Dietary feedings were provided at the same time each day. Diet preparations are shown below. Rats ([…]) were sacrificed via cardiac puncture under anesthesia. The livers were perfused with saline, excised and frozen in liquid nitrogen in preparation for RNA extraction. Total RNA from 0.4 g of each liver was isolated as per manufacturer's protocol using Trizol Reagent (Gibco BRL). In order to remove contaminating genomic DNA, the RNA sample was incubated with RQ1 RNase-free DNase (Promega) for 30 minutes at 37° C. The RNA was subsequently precipitated and resuspended to a final concentration of 0.5 mg/ml. To confirm the expression pattern of the genes as discovered in the differential display experiment and to determine the transcript size of these genes, Northern blot analysis was performed. […] The transfer of the RNA onto the membrane was verified by methylene blue staining. […] The Northern blot was performed following the protocol in Ausubel et al., 1994-, Current Protocols in Molecular Biology, John Wiley & Sons, NY. […]

FAS = assay: Northern blot quantification of FAS mRNA in liver of rats fed PUFA-supplemented fat free diet; conditions: rat liver RNA; female Wistar rats, fat free diet 2 weeks, then fatty acid 5% (w/w) in diet 2 weeks; ± standard deviation of three rats; normalized for 18S; fat free = 100
Description: as §1

[1] = test system: delta-3, delta-2-enoyl-CoA isomerase; assay: Northern blot quantification of delta-3, delta-2-enoyl-CoA isomerase mRNA in liver of rats fed PUFA-supplemented fat free diet; conditions: rat liver RNA; female Wistar rats, fat free diet 2 weeks, then fatty acid 5% (w/w) in diet 2 weeks; ± standard deviation of three rats; normalized for 18S; EPA = 100, fat free = 14 ± 18
Description: as §1

FTF1 = assay: Northern blot quantification of FTF1 mRNA in liver of rats fed PUFA-supplemented fat free diet; conditions: rat liver RNA; female Wistar rats, fat free diet 2 weeks, then fatty acid 5% (w/w) in diet 2 weeks; ± standard deviation of three rats; not normalized for 18S; fat free = 100
Description: as §1

GPAT = assay: Northern blot quantification of GPAT mRNA in liver of rats fed PUFA-supplemented fat free diet; conditions: rat liver RNA; female Wistar rats, fat free diet 2 weeks, then fatty acid 5% (w/w) in diet 2 weeks; ± standard deviation of three rats; normalized for 18S; fat free = 100
Description: as §1

METP = assay: Northern blot quantification of METP mRNA in liver of rats fed PUFA-supplemented fat free diet; conditions: rat liver RNA; female Wistar rats, fat free diet 2 weeks, then fatty acid 5% (w/w) in diet 2 weeks; ± standard deviation of three rats; normalized for 18S; EPA = 100, fat free = 10 ± 5
Description: as §1

ApoA-1 = assay: Northern blot quantification of ApoA-1 mRNA in liver of rats fed PUFA-supplemented fat free diet; conditions: rat liver RNA; female Wistar rats, fat free diet 2 weeks, then fatty acid 5% (w/w) in diet 2 weeks; ± standard deviation of three rats; normalized for 18S; fat free = 100
Description: as §1

GLOL = assay: Northern blot quantification of GLOL mRNA in liver of rats fed PUFA-supplemented fat free diet; conditions: rat liver RNA; female Wistar rats, fat free diet 2 weeks, then fatty acid 5% (w/w) in diet 2 weeks; ± standard deviation of three rats; normalized for 18S; fat free = 100
Description: as §1

A1BG = assay: Northern blot quantification of A1BG mRNA in liver of rats fed PUFA-supplemented fat free diet; conditions: rat liver RNA; female Wistar rats, fat free diet 2 weeks, then fatty acid 5% (w/w) in diet 2 weeks; ± standard deviation of three rats; not normalized for 18S; DHA = 100, fat free = 7 ± 9
Description: as §1

Spot-14 = assay: Northern blot quantification of Spot-14 mRNA in liver of rats fed PUFA-supplemented fat free diet; conditions: rat liver RNA; female Wistar rats, fat free diet 2 weeks, then fatty acid 5% (w/w) in diet 2 weeks; ± standard deviation of three rats; normalized for 18S; fat free = 100
Description: as §1

SCD2 = assay: Northern blot quantification of SCD2 mRNA in liver of rats fed PUFA-supplemented fat free diet; conditions: rat liver RNA; female Wistar rats, fat free diet 2 weeks, then fatty acid 5% (w/w) in diet 2 weeks; ± standard deviation of three rats; normalized for 18S; fat free = 100
Description: as §1

INSIG1 = assay: Northern blot quantification of INSIG1 mRNA in liver of rats fed PUFA-supplemented fat free diet; conditions: rat liver RNA; female Wistar rats, fat free diet 2 weeks, then fatty acid 5% (w/w) in diet 2 weeks; ± standard deviation of three rats; normalized for 18S; fat free = 100
Description: as §1

COMT = assay: Northern blot quantification of COMT mRNA in liver of rats fed PUFA-supplemented fat free diet; conditions: rat liver RNA; female Wistar rats, fat free diet 2 weeks, then fatty acid 5% (w/w) in diet 2 weeks; ± standard deviation of three rats; normalized for 18S; fat free = 100
Description: as §1

SCD1 = assay: Northern blot quantification of SCD1 mRNA in liver of rats fed PUFA-supplemented fat free diet; conditions: rat liver RNA; female Wistar rats, fat free diet 2 weeks, then fatty acid 5% (w/w) in diet 2 weeks; ± standard deviation of three rats; normalized for 18S; fat free = 100
Description: The present inventors have identified genes that were modulated or regulated by dietary fat using a differential display technique (Liang P. and Pardee A. B., 1992, Science, 257: 967-971). Groups of female Wistar rats were fed fat free diet for two weeks. After two weeks all groups but one (controls) were supplemented with highly purified PUFAs for an additional two weeks. The rats were sacrificed and tissues were removed to obtain RNA for differential display and Northern blotting. Differential display identified genes regulated by dietary fat by comparing mRNA populations from rat liver. For the study, the rats were divided into six groups and fed fat free diet for 14 days. Each group was fed fat free diet for an additional two weeks with the following supplements: group 1-no supplement (fat free control); group 2-linoleic acid (LA, 18:2n-6); group 3-gamma-linolenic acid (GLA, 18:3n-6); group 4-alpha-linolenic acid (ALA, 18:3n-3); group 5-eicosapentaenoic acid (EPA, 20:5n-3) and group 6-docosahexaenoic acid (DHA, 22:6n-3). Fatty acids were administered in the diet at a fatty acid-specific concentration of 5% (w/w), as described in Example 1. The rats were fed ad libitum. […] The rats were randomly divided into 6 groups and fed fat free diet (Teklad #94013). After 2 weeks, groups 2-6 were fed diets supplemented with highly purified polyunsaturated fatty acids for an additional 2 weeks. The concentration of the specific fatty acid used for each group was 5% (w/w) of the total diet preparation. The experimental design is provided below. Diets were prepared by mixing the oils into the fat free diet. The mixed diet was stored at -20° C. under a nitrogen atmosphere to prevent fatty acid oxidation. Dietary feedings were provided at the same time each day. Diet preparations are shown below. Rats ([…]) were sacrificed via cardiac puncture under anesthesia. The livers were perfused with saline, excised and frozen in liquid nitrogen in preparation for RNA extraction. Total RNA from 0.4 g of each liver was isolated as per manufacturer's protocol using Trizol Reagent (Gibco BRL). […]

[2] = test system: mRNA populations from rat liver; assay: Differential display of mRNA populations from liver of rats fed PUFA-supplemented fat free diet; conditions: preliminary differential display studies
Description: The present inventors have identified genes that were modulated or regulated by dietary fat using a differential display technique (Liang P. and Pardee A. B., 1992, Science, 257: 967-971). Groups of female Wistar rats were fed fat free diet for two weeks. After two weeks all groups but one (controls) were supplemented with highly purified PUFAs for an additional two weeks. The rats were sacrificed and tissues were removed to obtain RNA for differential display and Northern blotting. Differential display identified genes regulated by dietary fat by comparing mRNA populations from rat liver. For the study, the rats were divided into six groups and fed fat free diet for 14 days. Each group was fed fat free diet for an additional two weeks with the following supplements: group 1—no supplement (fat free control); group 2—linoleic acid (LA, 18:2n-6); group 3—gamma-linolenic acid (GLA, 18:3n-6); group 4—alpha-linolenic acid (ALA, 18:3n-3); group 5—eicosapentaenoic acid (EPA, 20:5n-3) and group 6—docosahexaenoic acid (DHA, 22:6n-3). Fatty acids were administered in the diet at a fatty acid-specific concentration of 5% (w/w), as described in Example 1. The rats were fed ad libitum. The protocol used in the present differential display experiment is based on, and closely followed, the Clontech Delta Differential Display Kit (Clontech Catalog No. K1810-1). […]

Compound	quantification of the Northern blots, G6PD (G6PD) [%]	quantification of the Northern blots, FAS (FAS) [%]	quantification of the Northern blots, delta-3, delta-2-enoyl-CoA isomerase [1] [%]	quantification of the Northern blots, FTF1 (FTF1) [%]	quantification of the Northern blots, GPAT (GPAT) [%]	quantification of the Northern blots, METP (METP) [%]	quantification of the Northern blots, ApoA-1 (ApoA-1) [%]	quantification of the Northern blots, GLOL (GLOL) [%]	quantification of the Northern blots, A1BG (A1BG) [%]	quantification of the Northern blots, Spot-14 (Spot-14) [%]	quantification of the Northern blots, SCD2 (SCD2) [%]	quantification of the Northern blots, INSIG1 (INSIG1) [%]	quantification of the Northern blots, COMT (COMT) [%]	quantification of the Northern blots, SCD1 (SCD1) [%]	differences in differential display versus fat free control [2]
CC/C=C\C/C=C\C/C=C\C/C=C\C/C=C\CCCC(=O)O [EPA, eicosapentaenoic acid]	15 ± 14	17 ± 14	100 ± 35	10 ± 7	14 ± 10	100 ± 16	25 ± 4	29 ± 15	32 ± 30	19 ± 25	2 ± 1	25 ± 3	50 ± 4		
CCCCC/C=C\C/C=C\C/C=C\CCCCC(=O)O [GLA, gamma-linolenic acid]	8 ± 9	17 ± 12	33 ± 15	4 ± 8	15 ± 13	78 ± 12	32 ± 8	37 ± 11	14 ± 10	12 ± 7	11 ± 6	11 ± 2	45 ± 23	6 ± 8	
CC/C=C\C/C=C\C/C=C\C/C=C\C/C=C\C/C=C\CCC(=O)O [DHA, docosahexaenoic acid]	19 ± 7	27 ± 21	87 ± 2	13 ± 12	26 ± 15	80 ± 28	12 ± 1	36 ± 17	100 ± 64	24 ± 18	4 ± 1	13 ± 11	49 ± 3	1 ± 1	
CCCCC/C=C\C/C=C\CCCCCCCC(=O)O [LA, linoleic acid]	42 ± 27	47 ± 40	29 ± 27	56 ± 15	52 ± 5	37 ± 7	90 ± 23	64 ± 6	52 ± 47	50 ± 6	63 ± 15	49 ± 12	59 ± 6	63 ± 20	no differences
